Experimental data from patent publication US8853420B2, “Compounds” (Boehringer Ingelheim International GmbH, priority 2008, dated 2014).

Each molecule was assayed against T1, Xenopus laevis Aurora B/INCENP complex (Xenopus laevis, UniProt Q6DE08) (assay: Aurora-B kinase assay (radioactive enzyme inhibition assay)). Settings: test substance at 1 μM; percentage of the positive control (maximum value without test substance).
T1 construct: equipped at the N-terminal position with a GST tag (amino acids 60-361); GST (N, cleaved yes); made in house; host or cells: E. coli BL21 (DE3)
T1 sequence (Q6DE08 60-361): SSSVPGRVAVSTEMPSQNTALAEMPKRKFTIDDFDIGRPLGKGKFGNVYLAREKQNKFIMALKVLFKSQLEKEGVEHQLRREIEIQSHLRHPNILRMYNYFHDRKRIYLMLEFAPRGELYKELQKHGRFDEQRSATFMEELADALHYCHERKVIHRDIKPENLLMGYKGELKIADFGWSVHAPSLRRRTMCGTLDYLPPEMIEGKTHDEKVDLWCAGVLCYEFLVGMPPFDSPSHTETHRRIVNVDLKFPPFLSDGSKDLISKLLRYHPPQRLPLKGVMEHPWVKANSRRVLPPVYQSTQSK
T1 sequence (O13024 790-847 partner limits assumed): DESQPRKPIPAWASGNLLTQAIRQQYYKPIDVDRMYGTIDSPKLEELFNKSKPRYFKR
Assay type: biochemical
Description: Example Aurora-B Kinase Assay
A radioactive enzyme inhibition assay was developed using E. coli-expressed recombinant Xenopus laevis Aurora B wild-type protein equipped at the N-terminal position with a GST tag (amino acids 60-361) in a complex with Xenopus laevis INCENP (amino acids 790-847), which is obtained from bacteria and purified. In equivalent manner a Xenopus laevis Aurora B mutant (G96V) in a complex with Xenopus laevis INCENP^790-847 may also be used.
Expression and Purification
The coding sequence for Aurora-B^60-361 from Xenopus laevis is cloned into a modified version of pGEX-6T (Amersham Biotech) via BamHI and SalI cutting sites. The vector contains two cloning cassettes which are separated by a ribosomal binding site, allowing bi-cistronic expression. In this configuration Xenopus laevis Aurora B is expressed by the first cassette, and the Xenopus laevis INCENP^790-847 is expressed by the second cassette. The resulting vector is pAUB-IN^847.
First of all the E. coli strain BL21 (DE3) is co-transformed with pUBS520 helper plasmid and pAUB-IN^847, after which protein expression is induced using 0.3 mM IPTG at an OD600 of 0.45-0.7. The expression is then continued for approx. 12-16 h at 23-25° C. with agitation.
The bacteria are then removed by centrifuging and the pellet is lysed in lysis buffer (50 mM Tris/Cl pH 7.6, 300 mM NaCl, 1 mM DTT, 1 mM EDTA, 5% glycerol, Roche Complete Protease Inhibitor tablets) using ultrasound, using 20-30 mL lysis buffer per liter of E. coli culture. The lysed material is freed from debris by centrifugation (12000 rpm, 45-60 min, JA20 rotor). The supernatant is incubated with 300 μL of equilibrated GST Sepharose Fast Flow (Amersham Biosciences) per liter of E. coli culture for 4-5 h at 4° C. Then the column material is washed with 30 volumes of lysis buffer and then equilibrated with 30 volumes of cleavage buffer (50 mM Tris/Cl pH 7.6, 150 mM NaCl, 1 mM DTT, 1 mM EDTA). To cleave the GST tag from Aurora B, 10 units of Prescission Protease (Amersham Biosciences) are used per milligram of substrate and the mixture is incubated for 16 h at 4° C. The supernatant which contains the cleavage product is loaded onto a 6 mL Resource Q column (Amersham Biosciences) equilibrated with ion exchange buffer (50 mM Tris/Cl pH 7.6, 150 mM NaCl, 1 mM DTT, 1 mM EDTA). The Aurora B/INCENP complex is caught as it flows through, then concentrated and loaded onto a Superdex 200 size exclusion chromatography (SEC) column equilibrated with SEC buffer (10 mM Tris/Cl pH 7.6, 150 mM NaCl, 1 mM DTT, 1 mM EDTA). Fractions which contain the AuroraB/INCENP complex are collected and concentrated using Vivaspin concentrators (molecular weight exclusion 3000-5000 Da) to a final concentration of 12 mg/mL. Aliquots (e.g. 240 ng/μL) for kinase assays are transferred from this stock solution into freezing buffer (50 mM Tris/Cl pH 8.0, 150 mM NaCl, 0.1 mM EDTA, 0.03% Brij-35, 10% glycerol, 1 mM DTT) and stored at −80° C.
Test substances are placed in a polypropylene dish (96 wells, Greiner #655 201), in order to cover a concentration frame of 10 μM-0.0001 μM. The final concentration of DMSO in the assay is 5%. 30 μL of protein mix (50 mM tris/Cl pH 7.5, 25 mM MgCl2, 25 mM NaCl, 167 μM ATP, 10 ng Xenopus laevis Aurora B/INCENP complex in freezing buffer) are pipetted into the 10 μl of test substance provided in 25% DMSO and this is incubated for 15 min at RT. Then 10 μL of peptide mix (100 mM tris/Cl pH 7.5, 50 mM MgCl2, 50 mM NaCl, 5 μM NaF, 5 μM DTT, 1 μCi gamma-P33-ATP [Amersham], 50 μM substrate peptide [biotin-[…] or multimers thereof, or biotin-[…] or multimers thereof, or biotin-[…]]) are added. The reaction is incubated for 75 min (ambient temperature) and stopped by the addition of 180 μL of 6.4% trichloroacetic acid and incubated for 20 min on ice. […]

Row | SMILES | remaining activity at 1 µM
1 | CC(C)CN1CCN(C(=O)c2ccc(N/C(=C3\C(=O)Nc4cc(-c5ccc(NC(C)C)nc5)ccc43)c3ccccc3)cc2)CC1 [Example 114] | 7.11%
2 | CNCC#Cc1cc2c(cc1S(=O)(=O)c1ccc(F)cc1)/C(=C(/Nc1ccccc1)c1ccccc1)C(=O)N2 [Example 157] | 1.98%
3 | CN(C)Cc1ccc(N/C(=C2\C(=O)Nc3cc(-c4ccc(C(N)=O)cc4)ccc32)c2ccccc2)cc1 [Example 43] | 102%
4 | CC(C)Nc1ccc(-c2ccc3c(c2)NC(=O)/C3=C(\Nc2ccc(C(=O)N3CCN(C4CC4)CC3)cc2)c2ccccc2)cn1 [Example 126] | 5.84%
5 | CN(C)Cc1ccc(N/C(=C2\C(=O)Nc3cc(-c4ccc(N(C)C)nc4)ccc32)c2ccccc2)cc1 [Example 6] | 11.4%
6 | CN(C)Cc1ccc(N/C(=C2\C(=O)Nc3cc(-c4cnc(N5CCCC5)nc4)ccc32)c2ccccc2)cc1 [Example 10] | 10.6%
7 | CC(C)Nc1ccc(-c2ccc3c(c2)NC(=O)/C3=C(\Nc2ccc(CN(C)C)cc2)c2ccccc2)cn1 [Example 58] | 8.01%
8 | CN(C)Cc1ccc(N/C(=C2\C(=O)Nc3cc(-c4cccc(S(N)(=O)=O)c4)ccc32)c2ccccc2)cc1 [Example 67] | 5.48%
9 | CN(C)Cc1ccc(N/C(=C2\C(=O)Nc3cc(-c4ccc(N5CCOCC5)nc4)ccc32)c2ccccc2)cc1 [Example 14] | 20.7%
10 | CCNC(=O)C#Cc1ccc2c(c1)NC(=O)/C2=C(\Nc1ccc(CN2CCCC2)cc1)c1ccccc1 [Example 175] | 3.04%
11 | CC(C)Nc1ccc(-c2ccc3c(c2)NC(=O)/C3=C(\Nc2ccc(C(=O)N3CCC[C@@H]3CN3CCCC3)cc2)c2ccccc2)cn1 [Example 130] | 1.43%
12 | CC(C)Nc1ncc(-c2ccc3c(c2)NC(=O)/C3=C(\Nc2ccc(N3CCN(C)[C@@H](C)C3)cc2)c2ccccc2)cn1 [Example 93] | 2.92%
13 | COc1cc(N/C(=C2\C(=O)Nc3cc(-c4ccc(NC(C)C)nc4)ccc32)c2ccccc2)ccc1C(=O)N(C)CCN(C)C [Example 111] | 2.35%
14 | CC(C)Nc1ncc(-c2ccc3c(c2)NC(=O)/C3=C(\Nc2ccc(N(C)C(=O)CN(C)C)cc2)c2ccccc2)cn1 [Example 75] | 1.74%
15 | CN(C)Cc1ccc(N/C(=C2\C(=O)Nc3cc(-c4ccc(NCC5CC5)nc4)ccc32)c2ccccc2)cc1 [Example 55] | 5.91%
16 | CC(C)Nc1ncc(-c2ccc3c(c2)NC(=O)/C3=C(\NC2CCN(C)CC2)c2ccccc2)cn1 [Example 79] | 103%
17 | CC(C)Nc1ncc(-c2ccc3c(c2)NC(=O)/C3=C(\Nc2ccc(OCCCN(C)C)cc2)c2ccccc2)cn1 [Example 89] | 5.97%
18 | CCNc1cnc(-c2ccc3c(c2)NC(=O)/C3=C(\Nc2ccc(CN(C)C)cc2)c2ccccc2)cn1 [Example 1] | 15.2%
19 | CN(C)Cc1ccc(N/C(=C2\C(=O)Nc3cc(C#CC(=O)NCCO)ccc32)c2ccccc2)cc1 [Example 166] | 1.93%
20 | CN(C)Cc1ccc(N/C(=C2\C(=O)Nc3cc(-c4ccc(NC5CC5)nc4)ccc32)c2ccccc2)cc1 [Example 59] | 9.19%
21 | CC(C)Nc1ccc(-c2ccc3c(c2)NC(=O)/C3=C(\Nc2ccc(C(=O)N3CCN(CC4CC4)CC3)cc2)c2ccccc2)cn1 [Example 118] | 4.44%
22 | CC(=O)Nc1cccc(-c2ccc3c(c2)NC(=O)/C3=C(\Nc2ccc(CN(C)C)cc2)c2ccccc2)c1 [Example 69] | 17.2%

Continued, values first:

Row | remaining activity at 1 µM | SMILES
23 | 4.67% | CC(C)Nc1ccc(-c2ccc3c(c2)NC(=O)/C3=C(\Nc2ccc(C(=O)N3CCC[C@H]3CN3CCCC3)cc2)c2ccccc2)cn1 [Example 127]
24 | 5.13% | COC(=O)C(C)(C)c1ccc(N/C(=C2\C(=O)Nc3cc(-c4cnc(NC(C)C)nc4)ccc32)c2ccccc2)cc1 [Example 82]
25 | 27.9% | CN(C)Cc1ccc(N/C(=C2\C(=O)Nc3cc(-c4cnc(N(C)C)nc4)ccc32)c2ccccc2)cc1 [Example 44]
26 | 3.36% | CC(C)Nc1ccc(-c2ccc3c(c2)NC(=O)/C3=C(\Nc2ccc(C(C)(C)C(=O)N3CC[C@H](N(C)C)C3)cc2)c2ccccc2)cn1 [Example 100]
27 | 21.1% | Cc1ccc(-c2ccc3c(c2)NC(=O)/C3=C(\Nc2ccc(CN(C)C)cc2)c2ccccc2)cn1 [Example 17]
28 | 1.69% | CN(C)Cc1ccc(N/C(=C2\C(=O)Nc3cc(C#CC(=O)Nc4ccccc4)ccc32)c2ccccc2)cc1 [Example 161]
29 | 2.07% | CC(C)Nc1ccc(-c2ccc3c(c2)NC(=O)/C3=C(\Nc2ccc(C(C)(C)C(=O)NC3CCN(C)CC3)cc2)c2ccccc2)cn1 [Example 102]
30 | 1.45% | COc1cc(N/C(=C2\C(=O)Nc3cc(-c4ccc(NC(C)C)nc4)ccc32)c2ccccc2)ccc1C(=O)N1C[C@H]2C[C@@H]1CN2C [Example 108]
31 | 5.48% | CC(C)Nc1ccc(-c2ccc3c(c2)NC(=O)/C3=C(\Nc2ccc(C(=O)N3C[C@H]4C[C@@H]3CN4C)cc2)c2ccccc2)cn1 [Example 131]
32 | 26.3% | CN(C)Cc1ccc(N/C(=C2\C(=O)Nc3cc(-c4ccc5c(c4)CC(=O)N5)ccc32)c2ccccc2)cc1 [Example 60]
33 | 2.69% | CC(C)Nc1ccc(-c2ccc3c(c2)NC(=O)/C3=C(\Nc2ccc(C(=O)N3CCN(C(C)C)CC3)cc2)c2ccccc2)cn1 [Example 123]
34 | 1.71% | O=C(C#Cc1ccc2c(c1)NC(=O)/C2=C(\Nc1ccc(CN2CCCC2)cc1)c1ccccc1)NCCF [Example 169]
35 | 50.3% | CNc1ccc(N/C(=C2\C(=O)Nc3cc(-c4cnc(NC(C)C)nc4)ccc32)c2ccccc2)cc1 [Example 85]
36 | 4% | CC(C)Nc1ccc(-c2ccc3c(c2)NC(=O)/C3=C(\Nc2ccc(C(=O)N3CCC(N4CCCC4)CC3)cc2)c2ccccc2)cn1 [Example 122]
37 | 1.04% | CC(C)Nc1ncc(-c2ccc3c(c2)NC(=O)/C3=C(\Nc2ccc(C(=O)O)cc2)c2ccccc2)cn1 [Example 83]
38 | 3.54% | CC(C)Nc1ccc(-c2ccc3c(c2)NC(=O)/C3=C(\Nc2ccc(C(=O)N3CCCN(C4CC4)CC3)cc2)c2ccccc2)cn1 [Example 119]
39 | 1.39% | CCNC(=O)C#Cc1ccc2c(c1)NC(=O)/C2=C(\Nc1ccc(N2CCN(C)CC2)cc1)c1ccccc1 [Example 160]
40 | 3.31% | CC(C)Nc1ccc(-c2ccc3c(c2)NC(=O)/C3=C(\Nc2ccc(C(=O)N3CCC(N4CCOCC4)CC3)cc2)c2ccccc2)cn1 [Example 121]
41 | 3.39% | C[C@H](CO)NC(=O)C#Cc1ccc2c(c1)NC(=O)/C2=C(\Nc1ccc(CN(C)C)cc1)c1ccccc1 [Example 171]
42 | 5.59% | CC(C)Nc1ncc(-c2cc3c(cc2F)/C(=C(/Nc2ccc(CN(C)C)cc2)c2ccccc2)C(=O)N3)cn1 [Example 73]
43 | 0.68% | CC(C)Nc1ccc(-c2ccc3c(c2)NC(=O)/C3=C(\Nc2ccc(C(=O)N(C)CCN(C)C)cc2)c2ccccc2)cn1 [Example 138]
44 | 3.68% | O=C(C#Cc1ccc2c(c1)NC(=O)/C2=C(\Nc1ccc(CN2CCCC2)cc1)c1ccccc1)Nc1cccc(Cl)c1 [Example 173]
